Measured values: patent US20140371074A1, “METHOD TO INCREASE PLANT YIELD” (priority 2012, published 2014)

Legend:
[1] = test system: soybean variety Asgrow 2933; assay: Field: side dress with 2,4-D Low Vol 4 solution, Laurel, Iowa (Table 3); format: in vivo; settings: for Percent of control: yield vs untreated control
Procedure: Plants were grown from Roundup Ready variety Asgrow 2933 seed that was treated with accelron (Monsanto) prior to planting. Plants were side dressed by application with a 3-point cultivator modified to spray on the ground in front of the shanks, the shanks then mix the 2,4-D mixture with the soil and move the mixture closer to the plant roots. Plants were treated with between 1X and 4X of 2,4-D Low Vol 4 solution, where 1X is equivalent to approximately 0.19 pounds acid equivalent of 2,4-D. Plants were grown with a row width of 30 inches and row length of 562 feet.

[2] = test system: soybean cultivars L2084R2, L2711R2X; assay: Field 2012: 2,4-D Low Vol 4 + crop oil drizzled onto soil at R1 stage, Alexander, Iowa (Table 2a); format: in vivo
Procedure: Plants were treated by drizzling via low pressure spraying the 2,4-D solution onto the soil along each side of the rows when plants are at the R1 stage of growth. The date of planting was May 15, 2012 and the date of harvest was Oct. 2, 2012 at plots in Alexander, Iowa (Table 2a) and Laurel, Iowa (Table 2b). Plants were grown from Roundup Ready seed and were sprayed with glyphosate for weed control. Plants were treated with between 1X and 5.5X of 2,4-D solution mixed with crop oil at 15.3 ounces of 2,4-D Low Vol 4 plus 0.32 ounces crop oil per gallon, where 1X is equivalent to approximately 0.45 pounds acid equivalent of 2,4-D. Two repetitions were performed at different plots. […] The moisture percentages were used in correcting each yield to a 13% moisture basis.

[3] = 1X side dress (1X~0.19 lb a.e.)
[4] = 2X side dress (1X~0.19 lb a.e.)
[5] = 3X side dress (1X~0.19 lb a.e.)
[6] = 4X side dress (1X~0.19 lb a.e.)
[7] = 1.0X Rate, L2084R2, 1X~0.45 lb a.e.
[8] = 1.0X Rate, L2711R2X, 1X~0.45 lb a.e.
[9] = 1.5X Rate, L2084R2, 1X~0.45 lb a.e.
[10] = 1.5X Rate, L2711R2X, 1X~0.45 lb a.e.
[11] = 2.0X Rate, L2084R2, 1X~0.45 lb a.e.
[12] = 2.0X Rate, L2711R2X, 1X~0.45 lb a.e.
[13] = 2.5X Rate, L2084R2, 1X~0.45 lb a.e.
[14] = 2.5X Rate, L2711R2X, 1X~0.45 lb a.e.
[15] = 3.0X Rate, L2084R2, 1X~0.45 lb a.e.
[16] = 3.0X Rate, L2711R2X, 1X~0.45 lb a.e.
[17] = 3.5X Rate, L2084R2, 1X~0.45 lb a.e.
[18] = 3.5X Rate, L2711R2X, 1X~0.45 lb a.e.
[19] = 4.0X Rate, L2084R2, 1X~0.45 lb a.e.
[20] = 4.0X Rate, L2711R2X, 1X~0.45 lb a.e.
[21] = 4.5X Rate, L2084R2, 1X~0.45 lb a.e.
[22] = 4.5X Rate, L2711R2X, 1X~0.45 lb a.e.
[23] = 5.0X Rate, L2084R2, 1X~0.45 lb a.e.
[24] = 5.0X Rate, L2711R2X, 1X~0.45 lb a.e.
[25] = 5.5X Rate, L2084R2, 1X~0.45 lb a.e.
[26] = 5.5X Rate, L2711R2X, 1X~0.45 lb a.e.
[27] = Average over 1.0X-3.0X Rates, L2084R2
[28] = Average over 1.0X-3.0X Rates, L2711R2X
[29] = Average over 1.0X-5.5X Rates, L2084R2
[30] = Average over 1.0X-5.5X Rates, L2711R2X
[31] = Overall location average, all rates, both cultivars

Compound: O=C(O)COc1ccc(Cl)cc1Cl [2,4-D, 2,4-Dichlorophenoxyacetic acid]
- Yield (Bushels/acre at 13% moisture) [1, 3]: 58.3 Bushels/acre
- Harvested weight ([1]; 1X side dress (1X~0.19 lb a.e.), 12 rows): 1292 g
- Percent of control [1, 3]: 110%
- Yield (Bushels/acre at 13% moisture) [1, 4]: 68.3 Bushels/acre
- Harvested weight ([1]; 2X side dress (1X~0.19 lb a.e.), 8 rows): 1016 g
- Percent of control [1, 4]: 130%
- Yield (Bushels/acre at 13% moisture) [1, 5]: 62.8 Bushels/acre
- Harvested weight ([1]; 3X side dress (1X~0.19 lb a.e.), 16 rows): 1844 g
- Percent of control [1, 5]: 120%
- Yield (Bushels/acre at 13% moisture) [1, 6]: 70.8 Bushels/acre
- Harvested weight ([1]; 4X side dress (1X~0.19 lb a.e.), 16 rows): 2088 g
- Percent of control [1, 6]: 135%
- plant yield (in words) ([1]; side dress treatment 1X-4X vs untreated): greatly increases plant yield
- Average Yield [2, 7]: 47.77 Bu/A
- Repetition 1 Weight [2, 7]: 4.3 Lbs
- Repetition 1 Yield [2, 7]: 49.06 Bu/A
- Repetition 2 Weight [2, 7]: 4.1 Lbs
- Repetition 2 Yield [2, 7]: 46.48 Bu/A
- Average Yield [2, 8]: 46.66 Bu/A
- Repetition 1 Weight [2, 8]: 3.7 Lbs
- Repetition 1 Yield [2, 8]: 42.30 Bu/A
- Repetition 2 Weight [2, 8]: 4.5 Lbs
- Repetition 2 Yield [2, 8]: 51.02 Bu/A
- Average Yield [2, 9]: 47.65 Bu/A
- Repetition 1 Weight [2, 9]: 3.4 Lbs
- Repetition 1 Yield [2, 9]: 38.79 Bu/A
- Repetition 2 Weight [2, 9]: 5 Lbs
- Repetition 2 Yield [2, 9]: 56.51 Bu/A
- Average Yield [2, 10]: 52.85 Bu/A
- Repetition 1 Weight [2, 10]: 3.9 Lbs
- Repetition 1 Yield [2, 10]: 44.54 Bu/A
- Repetition 2 Weight [2, 10]: 5.4 Lbs
- Repetition 2 Yield [2, 10]: 61.16 Bu/A
- Average Yield [2, 11]: 51.64 Bu/A
- Repetition 1 Weight [2, 11]: 4.5 Lbs
- Repetition 1 Yield [2, 11]: 51.23 Bu/A
- Repetition 2 Weight [2, 11]: 4.6 Lbs
- Repetition 2 Yield [2, 11]: 52.04 Bu/A
- Repetition 2 Weight [2, 12]: 4.1 Lbs
- Repetition 2 Yield [2, 12]: 46.43 Bu/A
- Average Yield ([2]; 2.0X Rate, L2711R2X, 1X~0.45 lb a.e., repetition 2 only): 46.43 Bu/A
- Average Yield [2, 13]: 38.59 Bu/A
- Repetition 1 Weight [2, 13]: 3.1 Lbs
- Repetition 1 Yield [2, 13]: 35.37 Bu/A
- Repetition 2 Weight [2, 13]: 3.7 Lbs
- Repetition 2 Yield [2, 13]: 41.81 Bu/A
- Average Yield [2, 14]: 39.75 Bu/A
- Repetition 1 Weight [2, 14]: 3.1 Lbs
- Repetition 1 Yield [2, 14]: 35.29 Bu/A
- Repetition 2 Weight [2, 14]: 3.9 Lbs
- Repetition 2 Yield [2, 14]: 44.21 Bu/A
- Average Yield [2, 15]: 43.14 Bu/A
- Repetition 1 Weight [2, 15]: 3.5 Lbs
- Repetition 1 Yield [2, 15]: 39.89 Bu/A
- Repetition 2 Weight [2, 15]: 4.1 Lbs
- Repetition 2 Yield [2, 15]: 46.38 Bu/A
- Average Yield [2, 16]: 45.36 Bu/A
- Repetition 1 Weight [2, 16]: 3.7 Lbs
- Repetition 1 Yield [2, 16]: 42.08 Bu/A
- Repetition 2 Weight [2, 16]: 4.3 Lbs
- Repetition 2 Yield [2, 16]: 48.65 Bu/A
- Repetition 1 Weight [2, 17]: 3.4 Lbs
- Repetition 1 Yield [2, 17]: 38.55 Bu/A
- Average Yield ([2]; 3.5X Rate, L2084R2, 1X~0.45 lb a.e., repetition 1 only): 38.55 Bu/A
- Repetition 1 Weight [2, 18]: 4.2 Lbs
- Repetition 1 Yield [2, 18]: 47.77 Bu/A
- Average Yield ([2]; 3.5X Rate, L2711R2X, 1X~0.45 lb a.e., repetition 1 only): 47.77 Bu/A
- Repetition 1 Weight [2, 19]: 4.5 Lbs
- Repetition 1 Yield [2, 19]: 51.07 Bu/A
- Average Yield ([2]; 4.0X Rate, L2084R2, 1X~0.45 lb a.e., repetition 1 only): 51.07 Bu/A
- Repetition 1 Weight [2, 20]: 5.4 Lbs
- Repetition 1 Yield [2, 20]: 61.28 Bu/A
- Average Yield ([2]; 4.0X Rate, L2711R2X, 1X~0.45 lb a.e., repetition 1 only): 61.28 Bu/A
- Repetition 1 Weight [2, 21]: 4.7 Lbs
- Repetition 1 Yield [2, 21]: 53.28 Bu/A
- Average Yield ([2]; 4.5X Rate, L2084R2, 1X~0.45 lb a.e., repetition 1 only): 53.28 Bu/A
- Repetition 1 Weight [2, 22]: 4.7 Lbs
- Repetition 1 Yield [2, 22]: 53.40 Bu/A
- Average Yield ([2]; 4.5X Rate, L2711R2X, 1X~0.45 lb a.e., repetition 1 only): 53.40 Bu/A
- Repetition 1 Weight [2, 23]: 4.1 Lbs
- Repetition 1 Yield [2, 23]: 46.58 Bu/A
- Average Yield ([2]; 5.0X Rate, L2084R2, 1X~0.45 lb a.e., repetition 1 only): 46.58 Bu/A
- Repetition 1 Weight [2, 24]: 4.3 Lbs
- Repetition 1 Yield [2, 24]: 48.90 Bu/A
- Average Yield ([2]; 5.0X Rate, L2711R2X, 1X~0.45 lb a.e., repetition 1 only): 48.90 Bu/A
- Repetition 1 Weight [2, 25]: 4.2 Lbs
- Repetition 1 Yield [2, 25]: 47.67 Bu/A
- Average Yield ([2]; 5.5X Rate, L2084R2, 1X~0.45 lb a.e., repetition 1 only): 47.67 Bu/A
- Repetition 1 Weight [2, 26]: 4.1 Lbs
- Repetition 1 Yield [2, 26]: 46.48 Bu/A
- Average Yield ([2]; 5.5X Rate, L2711R2X, 1X~0.45 lb a.e., repetition 1 only): 46.48 Bu/A
- Repetition 2 Weight [2, 27]: 4.3 Lbs
- Repetition 2 Yield [2, 27]: 48.65 Bu/A
- Repetition 2 Weight [2, 28]: 4.4 Lbs
- Repetition 2 Yield [2, 28]: 50.29 Bu/A
- Average Yield [2, 29]: 46.59 Bu/A
- Repetition 1 Weight [2, 29]: 4.0 Lbs
- Repetition 1 Yield [2, 29]: 45.15 Bu/A
- Average Yield [2, 30]: 48.89 Bu/A
- Repetition 1 Weight [2, 30]: 4.1 Lbs
- Repetition 1 Yield [2, 30]: 46.89 Bu/A
- Average Yield [2, 31]: 47.74 Bu/A
- Repetition 1 Weight [2, 31]: 4.0 Lbs
- Repetition 1 Yield [2, 31]: 45.97 Bu/A
- Repetition 2 Weight [2, 31]: 4.4 Lbs
- Repetition 2 Yield [2, 31]: 49.47 Bu/A
- plant yield (in words) ([2]; Table 2a, 2,4-D mixture 1.0X-5.5X vs untreated): increases plant yield
